This is an account of results in US20250270394A1, “CYCLODEXTRIN INCORPORATED SILICONE MATERIALS AND THEIR USE AS CARRIERS FOR ACTIVES” (WACKER CHEMIE AG, priority 2022, published 2025).

Data set [1] in a line: Thermogravimetric analysis (TGA) of evaporation of active, pure versus silyl-CD complex. It is filed as physicochemical. The source says:
Complex formation provides advantage for practical use of these guest molecules, many of which are pharmaceutical or cosmetic actives. For example, complexation slows down the evaporation of actives making the actives last longer. This is confirmed by Thermogravimetric analysis (TGA). Thermogravimetric analysis results for pure geraniol and its 1:1 complex with trimethylsilyl-β-cyclodextrin CH62 are shown in FIG. 4.
The complex with TMS-β-CD CH62 contains approximately 6 wt. % Geraniol. […] Thus, complexation with silyl-CD slows down loss of geraniol.
In FIG. 5 TGA thermograms show similar observations for complexation between a silyl-CD MG 15 and alpha-pinene 1:1 compared with pure alpha-pinene.
Pure pinene completely evaporates by 140° C., but it takes up to approximately 200° C. for the pinene to completely evaporate from the complex.

The nature of data set [2]: Release of geraniol from cured elastomer, weight loss in oven at 60° C. It counts as physicochemical. As to the method:
A cured elastomer/CD/geraniol sample (VP141-2-1) containing 10:1 mole ratio of geraniol to CD was prepared by using the following procedure: Trimethylsilyl-β-cyclodextrin CH62 (1.41 g, 0.59 mmol) and geraniol (0.90 g, 5.9 mmol) were added to a plastic cup and mixed using a Speedmixer™ for 2 min at 2000 rpm (mixing was repeated 2-3 times). The mixture appeared almost homogeneous. SiH terminated linear silicone of approximate formula MHD220MH and approximate viscosity 1000 mPa·s (13.95 g), SiH terminated and pendant SiH containing silicone of approximate formula MHD95.5DH9.6MH and having an approximate viscosity of 165 mPa·s (0.71 g), vinyl terminated linear silicone of approximate viscosity 1000 mPa·s (22.31 g) and platinum catalyst solution (0.078 g) were added to the cup and mixed using Speedmixer™ for 2 min at 2000 rpm (x 3-4 times). The resulted clear and colorless mixture was left in the tightly closed cup for 24-36 h to cure at room temperature to get a cured elastomer sample.
Then, vinyl terminated linear silicone of approximate viscosity 1000 mPa·s(23.09 g) and platinum catalyst solution (0.075 g) were added to the cup and mixed using Speedmixer™ for 2 min at 2000 rpm (mixing was repeated 2-3 times). The resultant clear, colorless mixture was left in the tightly closed cup for 24-36 h to cure at room temperature to get a cured elastomer sample. […]

A short description of data set [3]: Solubility of silylated cyclodextrins in silicone fluid BELSIL DM 5. As to the method:
Such a homogneous mixture can also be formed by using a magnetic stirrer, overhead stirrer, Speedmixer™ or similar mixing techniques.
Above experiment was repeated with a native γ-CD CAVAMAX® W8, which was not modified with silylation.
Silylated β-cyclodextrin CH77 with low number of silyl groups (7.95 TMS and 3.23 VDMS groups on average) was evaluated to check the solubility in DM 5 at 10 wt. %.

The nature of data set [4]: Homogeneity of cured silicone elastomer incorporating the cyclodextrin. It is filed as physicochemical. The conditions noted are these: hydrosilylation-cured PDMS elastomer, procedure analogous to CH95-70. The source says: 0.802 g (0.304 mmol) CH70, dimethylvinylsilyl-β-cyclodextrin, and 52.0 g of a silicon hydride terminated polydimethylsiloxane fluid with a viscosity of approx. 1000 mPa·s, are placed in a suitable plastic cup with a lid along with a magnetic stir bar. The cup is blanketed with nitrogen gas and then closed to maintain an inert atmosphere while stirring. The materials are stirred until the cyclodextrin is fully dissolved. To this solution, 22.9 g of a vinyl terminated polydimethylsiloxane fluid with a viscosity of approx. 100,000 mPa·s, are added and the contents of the plastic cup are hand-mixed with a stirring rod. 0.0757 g of a platinum catalyst solution, divinyl tetramethyl disiloxane platinum complex diluted in vinyl terminated polysiloxane (1% w/w Pt content), are added to the mixture and hand-mixed, followed by further mixing in a FlackTek, Inc. Speedmixer™, model DAC 1100.2 VAC, at 1250 rpm for 1 minute under vacuum (95 mbar pressure, to degas the mixture).
The composition is then placed into a “plate and frame” mold lined with a suitable release liner. The composition and mold are put into an oven preheated at 80° C. for 1 h to cure into a rubber slab produced are approximately 6 in X 6 in X 0.072 in. The cured elastomer specimen is clear and colorless. […]

Read-outs that look alike come from different tables or passages of the source. A value given as a limit tells only on which side of the number the result lay.

Turning to `CC(C)=CCC/C(C)=C/CO` [Geraniol, geraniol], in data set [1], the “temperature at which evaporation (weight loss) starts” value was “approximately 75 °C” and the “temperature at which evaporation is complete” value was “approximately 225 °C”. For the same compound, the “time to complete release of geraniol” value in data set [2] was “a few hours”.

Consider `OC[C@H]1O[C@@H]2O[C@H]3[C@H](O)[C@@H](O)[C@@H](O[C@H]4[C@H](O)[C@@H](O)[C@@H](O[C@H]5[C@H](O)[C@@H](O)[C@@H](O[C@H]6[C@H](O)[C@@H](O)[C@@H](O[C@H]7[C@H](O)[C@@H](O)[C@@H](O[C@H]8[C@H](O)[C@@H](O)[C@@H](O[C@H]9[C@H](O)[C@@H](O)[C@@H](O[C@H]1[C@H](O)[C@H]2O)O[C@@H]9CO)O[C@@H]8CO)O[C@@H]7CO)O[C@@H]6CO)O[C@@H]5CO)O[C@@H]4CO)O[C@@H]3CO` [CAVAMAX® W8, γ-cyclodextrin], for which the “solubility in DM 5 (appearance of mixture)” value in data set [3] was “heterogeneous and opaque, with gross phase separation”.

In the case of `CC1=CCC2CC1C2(C)C` (stereo not drawn) [pinene, alpha-pinene], in data set [1], the “temperature at which evaporation (weight loss) starts” value was below 30 °C and the “temperature at which evaporation is complete” value is at most 140 °C.

In the case of `COC[C@H]1O[C@@H]2O[C@H]3[C@H](OC)[C@@H](OC)[C@@H](O[C@H]4[C@H](OC)[C@@H](OC)[C@@H](O[C@H]5[C@H](OC)[C@@H](OC)[C@@H](O[C@H]6[C@H](OC)[C@@H](OC)[C@@H](O[C@H]7[C@H](OC)[C@@H](OC)[C@@H](O[C@H]8[C@H](OC)[C@@H](OC)[C@@H](O[C@H]1[C@H](OC)[C@H]2OC)O[C@@H]8COC)O[C@@H]7COC)O[C@@H]6COC)O[C@@H]5COC)O[C@@H]4COC)O[C@@H]3COC` [permethylated β-cyclodextrin], in data set [4], the “appearance of cured elastomer sample” value is given as “heterogeneous, opaque, with large domain separations”. Besides, the “solubility in DM 5 (appearance of mixture)” value in data set [3] (10 wt. % mixture in BELSIL DM 5 (polydimethylsiloxane, 5 mPa·s), vortex mixer) was “heterogeneous and opaque”.

On to `OC[C@H]1O[C@@H]2O[C@H]3[C@H](O)[C@@H](O)[C@@H](O[C@H]4[C@H](O)[C@@H](O)[C@@H](O[C@H]5[C@H](O)[C@@H](O)[C@@H](O[C@H]6[C@H](O)[C@@H](O)[C@@H](O[C@H]7[C@H](O)[C@@H](O)[C@@H](O[C@H]8[C@H](O)[C@@H](O)[C@@H](O[C@H]1[C@H](O)[C@H]2O)O[C@@H]8CO)O[C@@H]7CO)O[C@@H]6CO)O[C@@H]5CO)O[C@@H]4CO)O[C@@H]3CO` [CAVAMAX® W7, β-cyclodextrin], for which the “appearance of cured elastomer sample” value in data set [4] is “heterogeneous, opaque, with large domain separations”.
